Tested on: Plasmopara viticola
Test: Plasmopara viticola/Grape/Curative (Grape Downy Mildew)
Type: in vivo
Conditions: 200 ppm; grape seedlings cv. Gutedel, inoculated one day before application, assessed 4-6 days after application
Protocol: Plasmopara viticola/Grape/Curative (Grape Downy Mildew)
5-week-old grape seedlings cv. Gutedel are inoculated by spraying a sporangia suspension on their lower leaf surface one day before application. The inoculated grape plants are sprayed in a spray chamber with the formulated test compound diluted in water. The inoculated test plants are incubated at 22° C. and 100% rh in a greenhouse and the percentage leaf area covered by disease is assessed when an appropriate level of disease appears on untreated check plants (4-6 days after application).

`Cc1cc(C(F)(F)F)nn1CC(=O)N(C)CCCc1nc(C(=O)N(C)[C@@H]2CCCc3ccccc32)cs1` [Compound I.d.55, 2-(3-{methyl-[2-(5-methyl-3-trifluoromethyl-pyrazol-1-yl)-acetyl]-amino}-propyl)-thiazole-4-carboxylic acid methyl-(R)-1,2,3,4-tetrahydro-naphthalen-1-yl-amide] was tested, and the disease control was “at least 80%”.

Source: patent publication US20120258990A1 (priority 2009, published 2012)
